Experimental data published in patent US8501186B2, “Adjuvant composition for vaccine” (Serum Institute of India, Ltd., priority 2009, dated 2013).

Test system: normal mice
Assay: Comparative adjuvant activity on total anti-polysaccharide IgG levels in normal mice (Meningococcal A polysaccharide)
Type: in vivo
Conditions: parenteral, 14 and 28 day; for Total IgG level: IgG day 42, Mean ± SE
Description: The present adjuvant and extracts were administered with Meningococcal A polysaccharide on indicated days and IgG levels were estimated on day 42 to assess adjuvant activity.

| Structure (SMILES) | Activity (%) (percent immunomodulatory activity) (0.0185 mg/kg) | Total IgG level (0.0185 mg/kg) | Activity (%) (percent immunomodulatory activity) (0.011 mg/kg) | Total IgG level (0.011 mg/kg) |
| --- | --- | --- | --- | --- |
| CC1=C(C)C(=O)O[C@@H]([C@](C)(O)[C@H]2CC[C@H]3[C@@H]4[C@@H]5O[C@@H]5[C@@]5(O)CC=CC(=O)[C@]5(C)[C@H]4CC[C@]23C)C1 [Withanolide A] | 14.62 | 329.84 ± 86.82 | – | – |
| CC1=C(CO)C(=O)O[C@@H]([C@@H](C)[C@H]2CC[C@H]3[C@@H]4C[C@H]5O[C@]56[C@@H](O)C=CC(=O)[C@]6(C)[C@H]4CC[C@]23C)C1 [Withaferin A] | – | – | 38.12 | 397.47 ± 93.71 |
